Drawing on PubChem BioAssay AID1745844 (Carcinogenic Potency Database (CPDB), 2022), this text covers TD50 and carcinogen call for six compounds.

Active and inactive are the calls of the source. No rule for the calls is given here.

For orientation: TD50 means the dose at which the toxic effect under study appears in half of the subjects.

For this data set, the system named is rodent lifetime carcinogenesis bioassay, tumor incidence TD50. As to the kind of experiment: carcinogenic potency in animals, long-term in vivo studies, CPDB compilation (AID 1745844).
[1] abbreviates: mouse, strain B6C3F1, males, in feed, site: any site (literature study), lesion: several types, types named in the paper, dosed 103 weeks, study length 104 weeks.
Setting [2] is: mouse, strain B6C3F1, males, in feed, site: lung, lesion: alveolar/bronchiolar adenoma + alveolar/bronchiolar carcinoma, dosed 103 weeks, study length 104 weeks.
Where [3] appears, read: rat, strain Fischer 344, females, in feed, site: any site (literature study), lesion: several types, types named in the paper, dosed 103 weeks, study length 104 weeks.
[4] abbreviates: rat, strain Fischer 344, males, in feed, site: any site (literature study), lesion: several types, types named in the paper, dosed 103 weeks, study length 104 weeks.

In the case of `COP(=O)(OC)OC`, the TD50 (mouse, strain B6C3F1, females, by gavage, site: any site (literature study), lesion: several types, types named in the paper, dosed 103 weeks, study length 103 weeks) turned out to be 385 mg/kg/day; the TD50 (mouse, strain B6C3F1, females, by gavage, site: liver, lesion: hepatocellular adenoma + hepatocellular carcinoma + neoplastic nodule, dosed 103 weeks, study length 103 weeks) was determined as 6390 mg/kg/day; the TD50 (mouse, strain B6C3F1, females, by gavage, site: lung, lesion: alveolar/bronchiolar adenoma + alveolar/bronchiolar carcinoma, dosed 103 weeks, study length 103 weeks) was found to be 3900 mg/kg/day; the TD50 (mouse, strain B6C3F1, females, by gavage, site: uterus, endometrium, lesion: adenocarcinoma, NOS, dosed 103 weeks, study length 103 weeks) is 335 mg/kg/day; the TD50 (mouse, strain B6C3F1, males, by gavage, site: lung, lesion: alveolar/bronchiolar adenoma + alveolar/bronchiolar carcinoma, dosed 103 weeks, study length 103 weeks) came out at 61300 mg/kg/day; the TD50 (rat, strain Fischer 344, females, by gavage, site: any site (literature study), lesion: several types, types named in the paper, dosed 104 weeks, study length 105 weeks) was 73 mg/kg/day (inactive). Further, the TD50 runs as follows: (rat, strain Fischer 344, males, by gavage, site: any site (literature study), lesion: several types, types named in the paper, dosed 104 weeks, study length 105 weeks) 54.5 mg/kg/day; (rat, strain Fischer 344, males, by gavage, site: liver, lesion: hepatocellular adenoma + hepatocellular carcinoma + neoplastic nodule, dosed 104 weeks, study length 105 weeks) 485 mg/kg/day; (rat, strain Fischer 344, males, by gavage, site: subcutaneous tissue, lesion: fibroma, dosed 104 weeks, study length 105 weeks) 123 mg/kg/day. The carcinogen call is, setting by setting: (mouse, strain B6C3F1, males, by gavage, site: any site (literature study), lesion: several types, types named in the paper, dosed 103 weeks, study length 103 weeks) “negative (inactive)”; (rat, strain BOR:WISW (Wistar), females, in drinking water, site: any site (literature study), lesion: one or several types, types not named, dosed 52 weeks, study length 52 weeks) “negative (inactive)”; (rat, strain BOR:WISW (Wistar), females, in drinking water, site: any site (literature study), lesion: several types, types named in the paper, dosed 118 weeks, study length 128 weeks) “negative (inactive)”; (rat, strain BOR:WISW (Wistar), females, in drinking water, site: liver, lesion: hepatoma, dosed 118 weeks, study length 128 weeks) “negative (inactive)”; (rat, strain BOR:WISW (Wistar), males, in drinking water, site: any site (literature study), lesion: one or several types, types not named, dosed 52 weeks, study length 52 weeks) “negative (inactive)”; (rat, strain BOR:WISW (Wistar), males, in drinking water, site: any site (literature study), lesion: several types, types named in the paper, dosed 118 weeks, study length 128 weeks) “negative (inactive)”. Also, the carcinogen call (rat, strain BOR:WISW (Wistar), males, in drinking water, site: liver, lesion: hepatoma, dosed 118 weeks, study length 128 weeks) was “negative (inactive)”.

Turning to `COc1cccc2c1cc([N+](=O)[O-])c1c(C(=O)O)cc3c(c12)OCO3`, the TD50 was 0.0141 mg/kg/day (rat, strain Wistar, females, by gavage, site: forestomach, lesion: several types, types named in the paper, dosed 52 weeks, study length 69 weeks); 0.101 mg/kg/day (rat, strain Wistar, females, by gavage, site: forestomach, lesion: squamous-cell carcinoma, dosed 52 weeks, study length 69 weeks); 0.0247 mg/kg/day (rat, strain Wistar, females, by gavage, site: forestomach, lesion: squamous-cell papilloma, dosed 52 weeks, study length 69 weeks). Also, the carcinogen call (rat, strain Wistar, males, by gavage, site: forestomach, lesion: squamous-cell carcinoma, dosed 52 weeks, study length 69 weeks) is “positive”.

Consider `COc1cc2c(c3c1c(=O)c1ccccc1n3C)C=CC(C)(C)O2`, for which the TD50 is 2.46 mg/kg/day (mouse, strain B6C3F1, females, i.p., site: liver, lesion: hepatocellular adenoma + hepatocellular carcinoma + neoplastic nodule, dosed 48 weeks, study length 78 weeks); 2.46 mg/kg/day (mouse, strain B6C3F1, females, i.p., site: lung, lesion: alveolar/bronchiolar adenoma + alveolar/bronchiolar carcinoma, dosed 48 weeks, study length 78 weeks); 0.568 mg/kg/day (rat, strain Sprague-Dawley, females, i.p., site: any site (literature study), lesion: several types, types named in the paper, dosed 52 weeks, study length 80 weeks); 8.75 mg/kg/day (rat, strain Sprague-Dawley, females, i.p., site: liver, lesion: hepatocellular adenoma + hepatocellular carcinoma + neoplastic nodule, dosed 52 weeks, study length 80 weeks); 0.873 mg/kg/day (rat, strain Sprague-Dawley, females, i.p., site: mammary gland + peritoneum, lesion: adenocarcinoma, NOS + cystadenocarcinoma, NOS + cystadenoma, NOS + fibroadenoma + papillary adenocarcinoma + fibrosarcoma + mesothel, dosed 52 weeks, study length 80 weeks); 0.395 mg/kg/day (rat, strain Sprague-Dawley, females, i.p., site: mammary gland, lesion: adenocarcinoma, NOS + cystadenocarcinoma, NOS + cystadenoma, NOS + fibroadenoma + papillary adenocarcinoma, dosed 52 weeks, study length 80 weeks). Moreover, the TD50 was 0.455 mg/kg/day (rat, strain Sprague-Dawley, females, i.p., site: mammary gland, lesion: fibroadenoma, dosed 52 weeks, study length 80 weeks); 5.86 mg/kg/day (rat, strain Sprague-Dawley, females, i.p., site: peritoneum, lesion: fibrosarcoma + mesothelioma, malignant + sarcoma, NOS, dosed 52 weeks, study length 80 weeks); 11.4 mg/kg/day (rat, strain Sprague-Dawley, females, i.p., site: peritoneum, lesion: sarcoma, NOS, dosed 52 weeks, study length 80 weeks); 1.85 mg/kg/day (rat, strain Sprague-Dawley, males, i.p., site: adrenal gland, lesion: cortical adenoma, dosed 51 weeks, study length 80 weeks); 0.497 mg/kg/day (rat, strain Sprague-Dawley, males, i.p., site: all sites + bone + peritoneum + vertebra, lesion: osteosarcoma + fibrosarcoma + mesothelioma, NOS + mesothelioma, malignant + sarcoma, NOS, dosed 51 weeks, study length 80 weeks); 0.698 mg/kg/day (rat, strain Sprague-Dawley, males, i.p., site: all sites, lesion: osteosarcoma, dosed 51 weeks, study length 80 weeks). Further, the TD50 by setting is: (rat, strain Sprague-Dawley, males, i.p., site: any site (literature study), lesion: several types, types named in the paper, dosed 51 weeks, study length 80 weeks) 0.227 mg/kg/day; (rat, strain Sprague-Dawley, males, i.p., site: bone + vertebra, lesion: osteosarcoma, dosed 51 weeks, study length 80 weeks) 1.03 mg/kg/day; (rat, strain Sprague-Dawley, males, i.p., site: liver, lesion: hepatocellular adenoma + hepatocellular carcinoma + neoplastic nodule, dosed 51 weeks, study length 80 weeks) 2.11 mg/kg/day; (rat, strain Sprague-Dawley, males, i.p., site: peritoneum, lesion: fibrosarcoma + mesothelioma, NOS + mesothelioma, malignant + sarcoma, NOS, dosed 51 weeks, study length 80 weeks) 1.49 mg/kg/day.

Take `OC[C@@H](O)[C@@H](O)[C@H](O)[C@H](O)CO`: the TD50 is 46700 mg/kg/day (inactive) (mouse, strain B6C3F1, females, in feed, site: all sites, lesion: hemangiosarcoma, dosed 103 weeks, study length 104 weeks); 48000 mg/kg/day (mouse, strain B6C3F1, females, in feed, site: all sites, lesion: lymphocytic leukemia, dosed 103 weeks, study length 104 weeks); 98100 mg/kg/day under setting [2]; 5000 mg/kg/day (inactive) under setting [3]; 18000 mg/kg/day (rat, strain Fischer 344, males, in feed, site: liver, lesion: hepatocellular adenoma + hepatocellular carcinoma + neoplastic nodule, dosed 103 weeks, study length 104 weeks). Further, the carcinogen call under setting [1] is “negative (inactive)” and the carcinogen call under setting [4] was “negative (inactive)”.

`CNC[C@H](O)c1cccc(O)c1`: the TD50 was 911 mg/kg/day (inactive) (mouse, strain B6C3F1, females, in feed, site: any site (literature study), lesion: several types, types named in the paper, dosed 103 weeks, study length 104 weeks); 7850 mg/kg/day (mouse, strain B6C3F1, females, in feed, site: liver, lesion: hepatocellular adenoma + hepatocellular carcinoma + neoplastic nodule, dosed 103 weeks, study length 104 weeks); 1610 mg/kg/day (mouse, strain B6C3F1, females, in feed, site: lung, lesion: alveolar/bronchiolar adenoma + alveolar/bronchiolar carcinoma, dosed 103 weeks, study length 104 weeks); 6330 mg/kg/day under setting [1]; 4270 mg/kg/day (mouse, strain B6C3F1, males, in feed, site: liver, lesion: hepatocellular adenoma + hepatocellular carcinoma + neoplastic nodule, dosed 103 weeks, study length 104 weeks); 2130 mg/kg/day under setting [2]. Besides, the TD50 was 1720 mg/kg/day (mouse, strain B6C3F1, males, in feed, site: multiple organs + spleen, lesion: malignant lymphoma, mixed type, dosed 103 weeks, study length 104 weeks); 1640 mg/kg/day (inactive) (mouse, strain B6C3F1, males, in feed, site: subcutaneous tissue, lesion: fibrosarcoma, dosed 103 weeks, study length 104 weeks); 272 mg/kg/day (inactive) under setting [3]. The carcinogen call under setting [4] was “negative (inactive)”.

`O=S(=O)(Oc1ccc(Cl)cc1)c1ccc(Cl)cc1`: the carcinogen call is “negative (inactive)” (mouse, strain B6AKF1, females, oral dosing, site: any site (literature study), lesion: several types, types named in the paper, dosed 76 weeks, study length 76 weeks); “negative (inactive)” (mouse, strain B6AKF1, females, oral dosing, site: liver, lesion: hepatoma, dosed 76 weeks, study length 76 weeks); “negative (inactive)” (mouse, strain B6AKF1, females, oral dosing, site: lung, lesion: adenoma, dosed 76 weeks, study length 76 weeks); “negative (inactive)” (mouse, strain B6AKF1, males, oral dosing, site: any site (literature study), lesion: several types, types named in the paper, dosed 76 weeks, study length 76 weeks); “negative (inactive)” (mouse, strain B6AKF1, males, oral dosing, site: liver, lesion: hepatoma, dosed 76 weeks, study length 76 weeks); “negative (inactive)” (mouse, strain B6AKF1, males, oral dosing, site: lung, lesion: adenoma, dosed 76 weeks, study length 76 weeks). The carcinogen call (mouse, strain B6C3F1, females, oral dosing, site: lung, lesion: several types, types named in the paper, dosed 76 weeks, study length 76 weeks) was “negative (inactive)”. For the same compound, the TD50 is 931 mg/kg/day (inactive) (mouse, strain B6C3F1, females, oral dosing, site: any site (literature study), lesion: several types, types named in the paper, dosed 76 weeks, study length 76 weeks); 931 mg/kg/day (inactive) (mouse, strain B6C3F1, females, oral dosing, site: liver, lesion: hepatoma, dosed 76 weeks, study length 76 weeks); 84.5 mg/kg/day (inactive) (mouse, strain B6C3F1, males, oral dosing, site: any site (literature study), lesion: several types, types named in the paper, dosed 76 weeks, study length 76 weeks); 422 mg/kg/day (inactive) (mouse, strain B6C3F1, males, oral dosing, site: liver, lesion: hepatoma, dosed 76 weeks, study length 76 weeks); 869 mg/kg/day (inactive) (mouse, strain B6C3F1, males, oral dosing, site: lung, lesion: adenoma, dosed 76 weeks, study length 76 weeks).
